Source: ChEMBL document CHEMBL3804813, “Discovery and optimization of new benzofuran derivatives against p53-independent malignant cancer cells through inhibition of HIF-1 pathway” (Bioorg Med Chem Lett, 2016)
The source made the active and inactive calls. The rule behind the calls is not given here.

What was measured:
[1] = Antiproliferative activity against human HCT116 cells expressing wild type p53 assessed as growth inhibition after 72 hrs by MTT assay; type: functional, cell-based; conditions: HCT-116, 72 h
[2] = Antiproliferative activity against human p53-null HCT116 cells assessed as growth inhibition after 72 hrs by MTT assay; type: functional, cell-based; conditions: HCT-116, 72 h
[3] = Antiproliferative activity against human MDA-MB-435S cells assessed as growth inhibition after 72 hrs by MTT assay; type: functional, cell-based
[4] = target: Hypoxia-inducible factor 1-alpha (Homo sapiens) (UniProt Q16665); test: Inhibition of HIF-1 (unknown origin) expressed in human MCF7 cells co-transfected with hypoxia reporter plasmid p(HRE)3-Luc at 20 uM measured under hypoxia condition after 24 hrs by dual-luciferase reporter assay; type: cell-based
Sequence of Hypoxia-inducible factor 1-alpha (Homo sapiens) (Q16665 whole entry, looked up): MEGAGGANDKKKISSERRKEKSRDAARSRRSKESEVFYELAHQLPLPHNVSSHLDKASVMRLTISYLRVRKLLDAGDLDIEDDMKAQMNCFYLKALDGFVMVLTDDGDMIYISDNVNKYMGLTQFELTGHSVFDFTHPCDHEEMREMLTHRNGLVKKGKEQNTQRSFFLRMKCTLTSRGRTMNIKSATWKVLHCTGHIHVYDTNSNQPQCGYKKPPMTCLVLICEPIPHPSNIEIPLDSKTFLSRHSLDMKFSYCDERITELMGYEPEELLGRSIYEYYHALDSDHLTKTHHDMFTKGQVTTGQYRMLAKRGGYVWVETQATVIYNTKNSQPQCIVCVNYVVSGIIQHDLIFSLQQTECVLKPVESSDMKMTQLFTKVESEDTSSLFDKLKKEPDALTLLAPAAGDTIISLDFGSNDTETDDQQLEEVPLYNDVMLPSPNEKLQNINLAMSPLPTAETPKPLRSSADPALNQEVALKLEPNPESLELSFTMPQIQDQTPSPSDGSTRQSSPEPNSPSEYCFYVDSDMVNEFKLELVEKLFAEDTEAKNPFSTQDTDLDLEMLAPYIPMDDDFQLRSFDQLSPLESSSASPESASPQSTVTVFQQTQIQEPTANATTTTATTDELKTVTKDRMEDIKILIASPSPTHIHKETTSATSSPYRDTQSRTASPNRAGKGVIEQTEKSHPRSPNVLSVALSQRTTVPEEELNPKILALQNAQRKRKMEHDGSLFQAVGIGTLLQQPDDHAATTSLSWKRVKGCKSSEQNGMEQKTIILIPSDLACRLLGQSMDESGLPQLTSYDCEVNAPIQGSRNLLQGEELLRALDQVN

[5] = system: MCF7; test: Antiproliferative activity against human MCF7 cells assessed as growth inhibition after 72 hrs by MTT assay; type: functional, cell-based; conditions: MCF7, 72 h
[6] = Decrease in procaspase-3 expression level in human p53-null HCT116 -/- cells at 10 uM after 24 hrs by western blot analysis; type: functional, cell-based; conditions: HCT-116
[7] = Decrease in procaspase-9 expression level in human p53-null HCT116 -/- cells at 10 uM after 24 hrs by western blot analysis; type: functional, cell-based; conditions: HCT-116

inhibition [4] [%]	IC50 [5] [µM]	SMILES	IC50 [1] [µM]	IC50 [2] [µM]	IC50 [3] [µM]	inhibition [6]	inhibition [7]
		CCOC(=O)c1oc2ccc(NS(=O)(=O)c3ccc(Br)cc3)cc2c1C	9.31	> 40			
		CCOC(=O)c1oc2ccc(N(Cc3ccccc3)S(=O)(=O)c3ccccc3)cc2c1C	> 40	> 40			
< 10	6.72	Cc1c(C(=O)NCCN(C)C)oc2ccc(N(Cc3ccccc3)S(=O)(=O)c3ccc(Cl)cc3)cc12	7.06	6.31	9.24		
		Cc1c(C(=O)O)oc2ccc(N(Cc3ccc(Br)cc3)S(=O)(=O)c3ccc(Br)cc3)cc12	8.58	> 40			
		CCOC(=O)c1oc2ccc(N(Cc3ccccc3)S(=O)(=O)c3ccc(C(F)(F)F)cc3)cc2c1C	26.7	12.7			
32.3	31.8	Cc1c(C(=O)NCCCn2ccnc2)oc2ccc(N(Cc3ccccc3)S(=O)(=O)c3ccc(Cl)cc3)cc12	17.1	5	5.6		
		CCOC(=O)c1oc2ccc(N(Cc3ccccc3)S(=O)(=O)c3cccc(Br)c3)cc2c1C	> 40	> 40			
		CCOC(=O)c1oc2ccc(NS(=O)(=O)c3ccc(F)cc3)cc2c1C	10.5	> 40			
		Cc1c(C(=O)O)oc2ccc(N(Cc3ccccc3)S(=O)(=O)c3ccc(Br)cc3)cc12	7.09	20			
		Cc1c(C(=O)O)oc2ccc(N(Cc3ccc(Cl)cc3)S(=O)(=O)c3ccc(Cl)cc3)cc12	3.67	27.2			
		CCOC(=O)c1oc2ccc(NS(=O)(=O)c3ccc(C(F)(F)F)cc3)cc2c1C	5.03	24.2			
		Cc1c(C(=O)O)oc2ccc(N(Cc3ccccc3)S(=O)(=O)c3ccc(C(F)(F)F)cc3)cc12	4.13	21.1			
		CCOC(=O)c1oc2ccc(N(Cc3ccc(Br)cc3)S(=O)(=O)c3ccc(Br)cc3)cc2c1C	10.9	5.22			
		COc1ccc(N(Cc2ccccc2)S(=O)(=O)c2ccc(Cl)cc2)cc1	18.3	> 40			
		CCOC(=O)c1oc2ccc(N(Cc3ccccc3)S(=O)(=O)c3ccc([N+](=O)[O-])cc3)cc2c1C	> 40	> 40			
		CCOC(=O)c1oc2ccc(N(CC3CCCCC3)S(=O)(=O)c3ccc(Cl)cc3)cc2c1C	14.1	> 40			

inhibition [4] [%]	IC50 [5] [µM]	SMILES	IC50 [1] [µM]	IC50 [2] [µM]	IC50 [3] [µM]	inhibition [6]	inhibition [7]
27	> 40	Cc1c(C(=O)NCCCn2ccnc2)oc2ccc(N(Cc3ccc(Cl)cc3)S(=O)(=O)c3ccc(Cl)cc3)cc12	2.43	1.89	7.25		
		CCOC(=O)c1oc2ccc(N(Cc3ccccc3)S(=O)(=O)c3ccc(F)cc3)cc2c1C	5.82	33.1			
		CCOC(=O)c1oc2ccc(N(Cc3ccccc3)S(=O)(=O)c3cccc(Cl)c3)cc2c1C	> 40	> 40			
		CCOC(=O)c1oc2ccc(N(C(C)C)S(=O)(=O)c3ccc(Cl)cc3)cc2c1C	7.83	> 40			
		Cc1c(C(=O)O)oc2ccc(N(Cc3ccccc3)S(=O)(=O)c3ccc(F)cc3)cc12	> 40	> 40			
		CCOC(=O)c1oc2ccc(N(Cc3ccc(Cl)cc3)S(=O)(=O)c3ccc(Cl)cc3)cc2c1C	9.48	9.64			
		CCOC(=O)c1oc2ccc(NS(=O)(=O)c3ccc(Cl)cc3)cc2c1C	24.3	> 40			
		CCOC(=O)c1oc2ccc(N(Cc3ccccc3)S(=O)(=O)c3ccc(Cl)cc3)cc2c1C	4.86	23.2			
		CCOC(=O)c1oc2ccc(N(Cc3ccccc3)S(=O)(=O)c3ccccc3Br)cc2c1C	> 40	> 40			
		CCOC(=O)c1oc2ccc(N(Cc3ccccc3)S(=O)(=O)c3ccc(C)cc3)cc2c1C	> 40	> 40			
12.7	5.84	Cc1c(C(=O)NCCN(C)C)oc2ccc(N(Cc3ccc(Cl)cc3)S(=O)(=O)c3ccc(Cl)cc3)cc12	5.38	3.87	10.8		
		CCOC(=O)c1oc2ccc(N(Cc3ccccc3)S(=O)(=O)c3ccc(OC)cc3)cc2c1C	> 40	> 40			
		CCOC(=O)c1oc2ccc(N(Cc3ccccc3)S(=O)(=O)c3ccc(Br)cc3)cc2c1C	9.46	8.7			
< 10	5.01	COc1ccc(C2=N[C@@H](c3ccc(Cl)cc3)[C@@H](c3ccc(Cl)cc3)N2C(=O)N2CCNC(=O)C2)c(OC(C)C)c1 [NUTLIN-3]	5.21	21.5	29.6	inactive	inactive
		Cc1c(C(=O)O)oc2ccc(N(Cc3ccccc3)S(=O)(=O)c3ccc(Cl)cc3)cc12	9.13	33.4			
